Assay results: patent US11744899B2, “Pharmaceutical composition containing a hyaluronic acid derivative” (SEIKAGAKU CORPORATION, priority 2018, dated 2023)
Blank lines part the entries; values can stand above or below the compound they belong to.

Key:
[1] = Storage test (1-1) using 50 mM phosphate buffer solution (pH 6.5); type: physicochemical; settings: additional component 5 wt %; 1.0 wt % hyaluronic acid derivative, 50 mM phosphate buffer pH 6.5, 1 week at 60° C., HPLC; control solution = 1
Description: (§1) 1.5 g of the hyaluronic acid derivative of the above Synthesis Example and 98.5 g of each of the various buffer solutions prepared above were mixed and stirred for 2 hours in a water bath at 70° C., whereby a 1.5 wt % hyaluronic acid derivative solution was prepared.
(§2) Additional component aqueous solutions to be added to the hyaluronic acid derivative solution were prepared using various additional components and WFI so that the concentration of each component is three times as high as the final concentration (wt %).
(§3) 2.0 g of the 1.5 wt % hyaluronic acid derivative solution prepared above and 1.0 g of the additional component aqueous solution were mixed, whereby a test sample (final concentration of hyaluronic acid derivative: 1.0 wt %) was prepared.
(§4) The test samples prepared above containing each of the various buffer solutions (50 mM phosphate buffer solution, 10 mM citrate buffer solution, 10 mM acetate buffer solution, or 30 mM acetate buffer solution) were subjected to a storage test.
(§5) Each of the test samples was stored for 1 week in a thermostat chamber at 60° C., and thereafter, the accumulation amount of each of diclofenac and diclofenac lactam was measured by HPLC.
(§6) The amount of diclofenac and the amount of diclofenac lactam were calculated as relative values when each of the amount of diclofenac and the amount of diclofenac lactam present in the control solution (1 wt % hyaluronic acid derivative solution) after being stored for 1 week at 60° C. was assumed to be 1.
(§7) Each of the prepared various test samples was filled in a screw vial (AS ONE Corporation, Cat No. 3-1599-01) and left to stand at 60° C. for 1 week. The amount of diclofenac and the amount of diclofenac lactam present in the solution after being left to stand were quantitatively analyzed by HPLC.
(§8) The HPLC conditions are as follows.
(§9) The elution time of each of diclofenac and diclofenac lactam was determined by performing measurement in advance using a standard substance.

[2] = Storage test (1-4) using 10 mM acetate buffer solution (pH 5.1); type: physicochemical; settings: additional component 5 wt %; 1.0 wt % hyaluronic acid derivative, 10 mM acetate buffer pH 5.1, 1 week at 60° C., HPLC; control solution = 1
Description: An acetic acid aqueous solution having an acetic acid concentration of 15 mM and a sodium acetate aqueous solution having an acetate concentration of 15 mM were mixed at a ratio (volume ratio) of 1:3, whereby an acetate buffer solution was prepared. The pH of the acetate buffer solution after preparation was 5.1. In addition, an acetate buffer solution having an acetic acid concentration of 45 mM and a pH of 5.1 was prepared in a similar manner. […]
as §5, §6
as §7, with “HPLC. […]” for “HPLC.”
as §9

[3] = Storage test (1-2) using 10 mM citrate buffer solution (pH 5.1); type: physicochemical; settings: after storage, 1.0 wt % hyaluronic acid derivative, 10 mM citrate buffer pH 5.1, 1 week at 60° C.
Description: A citric acid aqueous solution having a citric acid concentration of 15 mM and a trisodium citrate aqueous solution having a citrate concentration of 15 mM were mixed at a ratio (volume ratio) of 27:37, whereby a citrate buffer solution was prepared. The pH of the citrate buffer solution after preparation was 5.1.
as §1, §2, §3, §4, §5, §6, §7, §8, §9
As the additional component, creatinine (1 wt %), sodium deoxycholate (5 wt %), 1,2,3-butanetriol (5 wt %), PEG 400 (6.3 wt % or 16.5 wt %), PEG 600 (10 wt %), PEG 4000 (10 wt %), PEG 6000 (10 wt %), SDS (5 wt %), Triton X-100 (5 wt %), ethanol (26 wt %), octyl glucoside (5 wt %), glucuronolactone (0.1 wt %), chlorogenic acid (0.1 wt %), propylene glycol (10 wt %), polysorbate 20 (5 wt %), or polyvinylpyrrolidone (5 wt %) was used.
Similarly, as the additional component, additional components of a two-component system of PEG 3350 (10.6 wt %) and polysorbate 80 (3 wt %), or PEG 3350 (6.0 wt %) and hydroxypropyl-β-cyclodextrin (10 wt %), or additional components of a three-component system of PEG 3350 (5.5 wt %), polysorbate 80 (1 wt %) and hydroxypropyl-β-cyclodextrin (10 wt %) were used.

[4] = Evaluation of filterability of aqueous composition (Vmax); type: physicochemical; settings: 1.0 wt % hyaluronic acid derivative, acetate buffer pH 5.1, 0.22 μm PVDF membrane, 0.6 MPa, 70° C.
Description: The calculation of the maximum treatment amount (Vmax) is more specifically performed as follows. That is, the aqueous composition at a liquid temperature of 70° C. is filtered under a pressure of 0.6 MPa using a polyvinylidene fluoride filtration membrane with a pore size of 0.22 μm. At that time, the total filtration amount per effective filtration area (V) of the filtration membrane is measured every 30 seconds until the flow rate (Q) becomes 1/10 or less of the flow rate at the start of filtration. By plotting the measurement results with the filtration time (t) along the horizontal axis and t/V along the vertical axis, the following formula A is calculated within a range of the measurement point where the transition of t/V is stable. The maximum treatment amount (Vmax) is determined from the reciprocal of the slope a of the calculation formula A (that is, the following calculation formula B). Note that the flow rate (Q) is the filtration amount per unit time (that is, Q=dV/dt).
The hyaluronic acid derivative prepared above and the 15 mM acetate buffer solution (pH 5.1) prepared above were mixed and stirred, and then, defoamed by being left to stand, whereby a 1.5 wt % hyaluronic acid derivative solution was prepared.
150.0 g of the 1.5 wt % hyaluronic acid derivative solution prepared above and 75.0 g of an additional component aqueous solution were mixed, whereby a test sample (final concentration of hyaluronic acid derivative: 1.0 wt %) was prepared.
In addition, a control solution in which 75.0 g of WFI was mixed in place of the additional component aqueous solution was also prepared.
To a stainless steel pressure filter holder in which a polyvinylidene fluoride (PVDF) membrane (47 mm in diameter, effective filtration area: 13.8 cm^2, manufactured by Merck & Co.) with a pore size of 0.22 μm was set, 200 mL of the test sample prepared above was added and pressure was applied at 0.6 MPa at 70° C. The amount of liquid passing through the filter was weighed every 30 seconds, and the maximum treatment amount (Vmax) was calculated from the relationship between the elapsed time and the total filtration amount.

[5] = Storage test (1-3) using 30 mM acetate buffer solution (pH 5.1); type: physicochemical; settings: 1.0 wt % hyaluronic acid derivative, 30 mM acetate buffer pH 5.1, 1 week at 60° C., HPLC, control solution = 1
Description: An acetic acid aqueous solution having an acetic acid concentration of 15 mM and a sodium acetate aqueous solution having an acetate concentration of 15 mM were mixed at a ratio (volume ratio) of 1:3, whereby an acetate buffer solution was prepared. The pH of the acetate buffer solution after preparation was 5.1. In addition, an acetate buffer solution having an acetic acid concentration of 45 mM and a pH of 5.1 was prepared in a similar manner.
as §1, §2, §3, §4, §5, §6, §7, §8, §9
As the additional component, propyl gallate (1.5 wt %), any one of lactic acid anhydrous (1.5 wt %), hydroxypropyl cellulose (1.5 wt %), starch (1.5 wt %), dextran (5 wt %), sucrose (5 wt %), sodium saccharinate dihydrate (5 wt %), glycine (5 wt %), sodium aspartate (1.5 wt %), L-leucine (1.5 wt %), L-phenylalanine (5 wt %), L-serine (5 wt %), D-mannitol (1.5 wt %), D-sorbitol (5 wt %), hydroxypropyl-β-cyclodextrin (3 wt %, 5 wt %, 10 wt %, or 15 wt %), and ethanol (5 wt %, 10 wt %, 20 wt %, or 26.3 wt %) was used.

[6] = biological target: T1, Cox-2 (Homo sapiens, UniProt P35354); assay: Cox-2 inhibitory activity; type: biochemical; settings: ratio to diclofenac
T1 sequence (P35354 18-604): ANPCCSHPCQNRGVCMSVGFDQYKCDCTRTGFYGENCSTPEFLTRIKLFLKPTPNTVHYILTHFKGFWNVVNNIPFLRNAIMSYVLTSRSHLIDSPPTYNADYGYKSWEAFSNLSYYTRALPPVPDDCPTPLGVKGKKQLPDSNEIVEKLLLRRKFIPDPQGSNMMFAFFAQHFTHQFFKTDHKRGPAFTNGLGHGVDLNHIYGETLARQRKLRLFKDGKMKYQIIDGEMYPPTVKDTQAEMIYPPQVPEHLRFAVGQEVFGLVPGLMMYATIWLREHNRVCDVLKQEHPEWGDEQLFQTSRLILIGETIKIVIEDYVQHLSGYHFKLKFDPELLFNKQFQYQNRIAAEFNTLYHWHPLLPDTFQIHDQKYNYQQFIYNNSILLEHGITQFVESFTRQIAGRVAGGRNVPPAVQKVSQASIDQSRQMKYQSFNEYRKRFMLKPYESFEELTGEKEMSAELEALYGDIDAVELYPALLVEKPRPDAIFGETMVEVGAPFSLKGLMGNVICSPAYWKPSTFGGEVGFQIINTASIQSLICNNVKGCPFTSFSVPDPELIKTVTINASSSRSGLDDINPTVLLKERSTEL

Dic amount: the relative value of the amount of diclofenac [1]: 1.02
Compound: OCC(O)CO [glycerin]

Dic amount: the relative value of the amount of diclofenac [2]: 0.63 | Lac amount: the relative value of the amount of diclofenac lactam [2]: 0.34
Compound: hydroxyethyl-β-cyclodextrin [HE-β-CD]

Solution properties ([3]; additional component 5 wt %): colorless and clear
Compound: CCCCCCCCO[C@@H]1O[C@H](CO)[C@@H](O)[C@H](O)[C@H]1O [octyl glucoside]

Solution properties ([3]; additional component 0.1 wt %): light yellow and clear
Compound: O=C(/C=C/c1ccc(O)c(O)c1)O[C@@H]1C[C@](O)(C(=O)O)C[C@@H](O)[C@H]1O [chlorogenic acid]

Dic amount: the relative value of the amount of diclofenac [1]: 1.15
Compound: OC[C@H]1OC=C[C@@H](O)[C@@H]1O [D-glucal]

Maximum treatment amount ([4]; additional component 5 wt %): 10.3 g/cm^2 | Maximum treatment amount ([4]; additional component 10 wt %): 8.2 g/cm^2 | Solution properties ([3]; additional component 26 wt %): colorless and clear
Compound: CCO [ethanol]

Compound: COc1ccc(O)c(C(C)(C)C)c1 [butylhydroxyanisole]
Dic amount: the relative value of the amount of diclofenac [1]: 0.99

Dic amount: the relative value of the amount of diclofenac ([5]; additional component 3 wt %): 0.62 | Lac amount: the relative value of the amount of diclofenac lactam ([5]; additional component 3 wt %): 0.45 | Dic amount: the relative value of the amount of diclofenac ([5]; additional component 5 wt %): 0.54 | Lac amount: the relative value of the amount of diclofenac lactam ([5]; additional component 5 wt %): 0.34 | Dic amount: the relative value of the amount of diclofenac ([5]; additional component 10 wt %): 0.44 | Lac amount: the relative value of the amount of diclofenac lactam ([5]; additional component 10 wt %): 0.23 | Dic amount: the relative value of the amount of diclofenac ([5]; additional component 15 wt %): 0.36 | Lac amount: the relative value of the amount of diclofenac lactam ([5]; additional component 15 wt %): 0.17 | Maximum treatment amount ([4]; additional component 5 wt %): 8.3 g/cm^2 | Maximum treatment amount ([4]; additional component 10 wt %): 10.4 g/cm^2
Compound: hydroxypropyl-β-cyclodextrin [HP-β-CD]

Solution properties ([3]; additional component 5 wt %): colorless and clear
Compound: polysorbate 20

Solution properties ([3]; additional component 0.1 wt %): slightly yellow and clear
Compound: O=C[C@H](O)[C@H]1OC(=O)[C@@H](O)[C@H]1O [glucuronolactone]

Solution properties ([3]; additional component 10 wt %): colorless and slightly turbid
Compound: CC(O)CO (centres unmarked) [propylene glycol]

Solution properties ([3]; additional component 5 wt %): colorless and clear
Compound: CCCCCCCCCCCCOS(=O)(=O)[O-].[Na+] [SDS, sodium dodecyl sulfate]

Cox-2 inhibitory activity relative to that of diclofenac [6]: about 1/100
Compound: O=C1Cc2ccccc2N1c1c(Cl)cccc1Cl [diclofenac lactam]

Compound: octylphenol ethoxylate [Triton X-100]
Solution properties ([3]; additional component 5 wt %): colorless and clear
